ChEMBL document CHEMBL3233011, “Structural modifications of CH(OH)-DAPYs as new HIV-1 non-nucleoside reverse transcriptase inhibitors” (Bioorg Med Chem, 2014)

Key:
[1] = system: Human immunodeficiency virus 1; assay: Antiviral activity against HIV1 3B infected in human MT4 cells assessed as inhibition of viral cytopathogenicity after 5 days by MTT assay; assay type: functional, organism-based; conditions: Human immunodeficiency virus 1, 3B, MT4, 120 h
[2] = system: Human immunodeficiency virus 1; assay: Antiviral activity against HIV1 harboring RT K103N/Y181C double mutant infected in human MT4 cells assessed as inhibition of viral cytopathogenicity after 5 days by MTT assay; assay type: functional, organism-based; conditions: Human immunodeficiency virus 1, MT4, 120 h
[3] = Cytotoxicity against mock-infected human MT4 cells after 5 days by MTT assay; assay type: cell-based
[4] = system: Human immunodeficiency virus 2; assay: Antiviral activity against HIV2 ROD infected in human MT4 cells assessed as inhibition of viral cytopathogenicity after 5 days by MTT assay; assay type: functional, organism-based; conditions: Human immunodeficiency virus 2, ISOLATE ROD, MT4, 120 h
[5] = biological target: Human immunodeficiency virus type 1 reverse transcriptase (Human immunodeficiency virus 1, UniProt Q72547); assay: Inhibition of wild-type HIV1 reverse transcriptase p66/p51 after 40 mins by spectrophotometry
[6] = system: Human immunodeficiency virus 1; assay: Ratio of nevirapine EC50 to compound EC50 for HIV1 3B infected in human MT4 cells; assay type: functional
[7] = system: Human immunodeficiency virus 1; assay: Ratio of delaviridine EC50 to compound EC50 for HIV1 3B infected in human MT4 cells; assay type: functional

Compound	EC50 [1] [µM]	EC50 [2] [µM]	CC50 at 120 h [3] [µM]	EC50 [4] [µM]	IC50 [5] [µM]	Ratio EC50 [6]	Ratio EC50 [7]
COc1ccc(C(C)(O)c2ccnc(Nc3ccc(C#N)cc3)n2)cc1 (configuration not stated)	0.346	> 35.9	35.9	> 35.9	–	–	–
Cc1cc(C(C)(O)c2ccc(F)cc2)nc(Nc2ccc(C#N)cc2)n1 (configuration not stated)	3.55	> 38.2	38.2	> 38.2	–	–	–
CC(C)(C)c1ccc(C(C)(O)c2ccnc(Nc3ccc(C#N)cc3)n2)cc1 (configuration not stated)	0.564	> 31.8	31.8	> 31.8	–	–	–
Cc1cc(C#N)cc(C)c1Oc1nc(Nc2ccc(C#N)cc2)nc(N)c1Br [ETRAVIRINE]	–	–	–	> 27.8	–	–	–
CC(O)(c1ccc(Br)cc1)c1ccnc(Nc2ccc(C#N)cc2)n1 (configuration not stated)	0.305	> 28.2	28.2	> 28.2	–	–	–
CC(O)(c1ccc(F)cc1)c1ccnc(Nc2ccc(C#N)cc2)n1 (configuration not stated)	2.5	> 43.1	43.1	> 43.1	–	–	–
O=C1Nc2ccc(Cl)cc2[C@@](C#CC2CC2)(C(F)(F)F)O1 [EFAVIRENZ]	0.022	–	> 6.3	–	–	–	–
N#Cc1ccc(Nc2nccc(C(O)(c3ccc(Br)cc3)C3CC3)n2)cc1 (configuration not stated)	3.11	> 33.2	33.2	> 33.2	–	–	–
CC(O)(c1cccc(Br)c1)c1ccnc(Nc2ccc(C#N)cc2)n1 (configuration not stated)	0.191	> 33.7	33.7	> 33.7	0.39	–	–
CCC(O)(c1ccc(Br)cc1)c1ccnc(Nc2ccc(C#N)cc2)n1 (configuration not stated)	2.07	> 31.3	31.3	> 31.3	–	–	–
Cc1cc(C(C)(O)c2ccc(C(C)(C)C)cc2)nc(Nc2ccc(C#N)cc2)n1 (configuration not stated)	1.25	> 30.4	30.4	> 30.4	–	–	–
Cc1cnc(Nc2ccc(C#N)cc2)nc1C(C)(O)c1ccc(C(C)(C)C)cc1 (configuration not stated)	7.21	> 31.1	31.1	> 31.1	–	–	–
C=CC(O)(c1ccc(Br)cc1)c1ccnc(Nc2ccc(C#N)cc2)n1 (configuration not stated)	0.355	> 31.7	31.7	> 31.7	–	–	–
Cc1cn([C@H]2C[C@H](N=[N+]=[N-])[C@@H](CO)O2)c(=O)[nH]c1=O [ZIDOVUDINE]	–	0.008	> 93.6	–	–	–	–
CC(O)(c1cccc(Cl)c1)c1ccnc(Nc2ccc(C#N)cc2)n1 (configuration not stated)	0.257	> 37.5	37.5	> 37.5	–	–	–
CC(O)(c1ccnc(Nc2ccc(C#N)cc2)n1)c1cccc2ccccc12 (configuration not stated)	0.388	> 30.7	30.7	> 30.7	–	–	–
Cc1ccc(C(C)(O)c2ccnc(Nc3ccc(C#N)cc3)n2)cc1 (configuration not stated)	0.067	> 39.9	39.3	> 39.9	0.16	2	2
Cc1ccnc2c1NC(=O)c1cccnc1N2C1CC1 [NEVIRAPINE]	–	0.901	> 15	–	–	–	–
CC(C)Nc1cccnc1N1CCN(C(=O)c2cc3cc(NS(C)(=O)=O)ccc3[nH]2)CC1 [DELAVIRDINE]	0.81	> 43.8	> 43.8	–	–	–	–
CC(O)(c1ccc(Cl)cc1)c1ccnc(Nc2ccc(C#N)cc2)n1 (configuration not stated)	0.317	> 39	39	> 39	–	–	–
CC(O)(c1cccc(F)c1)c1ccnc(Nc2ccc(C#N)cc2)n1 (configuration not stated)	0.201	> 53.2	53.2	> 49.6	0.63	–	–
Cc1cnc(Nc2ccc(C#N)cc2)nc1C(C)(O)c1ccc(F)cc1 (configuration not stated)	> 61.5	–	61.5	> 61.5	–	–	–
CC(O)(c1ccccc1)c1ccnc(Nc2ccc(C#N)cc2)n1 (configuration not stated)	0.288	> 45.4	45.4	> 45.4	2	–	–
